2 molecules from BindingDB's records for doi:10.1021/np2005083 (National Cancer Institute-Frederick, 2011) can be followed below.

The target of this experiment is Transcription factor Jun (Homo sapiens, UniProt P05412). Put plainly: Inhibition of AP1 expressed in HEK293T cells coexpressing beta-lactamase pre-incubated 1 hr before TPA addition measured 18 hrs post TPA challenge by fluorimetric assay.
Sequence of Transcription factor Jun (P05412 whole entry): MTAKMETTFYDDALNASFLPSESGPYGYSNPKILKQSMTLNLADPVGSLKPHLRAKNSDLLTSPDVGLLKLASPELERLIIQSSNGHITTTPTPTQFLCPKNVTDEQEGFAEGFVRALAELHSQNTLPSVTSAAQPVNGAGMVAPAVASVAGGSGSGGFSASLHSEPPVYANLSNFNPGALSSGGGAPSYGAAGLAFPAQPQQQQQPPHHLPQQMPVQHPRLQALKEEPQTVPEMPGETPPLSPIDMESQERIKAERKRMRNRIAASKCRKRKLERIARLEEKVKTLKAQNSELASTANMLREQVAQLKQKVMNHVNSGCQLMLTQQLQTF

In general, IC50 refers to the concentration at which inhibition is half-maximal. Molecule `CC[C@H]1NC(=O)[C@@H]2CSC(=N2)[C@@H](Cc2ccccc2)N(C)C(=O)[C@@H]2CCCN2C(=O)[C@H](C(C)C)N(C)C(=O)[C@H](Cc2ccccc2)OC(=O)[C@H](C)[C@@H](C)NC(=O)[C@@H](C(C)C)NC(=O)[C@@H](Cc2ccccc2)N(C)C(=O)[C@@H]2CSC1=N2` displayed a 50% inhibitory concentration (IC50) of 5.2 µM.

In turn, `CC(C)[C@H]1C(=O)N2CCC[C@H]2C(=O)N(C)[C@H](Cc2ccccc2)C2=N[C@@H](CS2)C(=O)N[C@H](C)C2=N[C@@H](CS2)C(=O)N(C)[C@H](Cc2ccccc2)C(=O)N[C@H](C(C)C)C(=O)N[C@H](C)[C@@H](C)C(=O)O[C@@H](Cc2ccccc2)C(=O)N1C` showed an IC50 of 6 µM.
